Reference: patent US8377470B2, “Non-gelatin soft capsule system” (R.P. Scherer Technologies, LLC, priority 2004, dated 2013)

Key:
[1] = Film stability with concentrated salt formulations, starch/gelling carrageenan film; assay type: physicochemical; details: concentrated suspension/solution in film depression, open exposure
Experimental: (§1) The films were formed and spread over a holding device such that small depressions could be formed in the surface of the film. A depression was formed and subsequently filled with the concentrated suspension of the salt formulation. Simultaneously, two acidic solutions were tested by the same protocol. […] This is well-known in the art to be an extremely aggressive mode of stability testing, resulting in acceleration in the interaction between shell and fill of over 260 times normal rates.

[2] = Film stability with concentrated salt formulations, gelatin film; assay type: physicochemical; details: concentrated suspension/solution in film depression, open exposure
Experimental: as §1

[3] = sodium or potassium hydroxide required to solubilize acetaminophen at greater than about 27% by weight; cited from earlier work

SMILES	Test Result After 24 Hours at 40° C.-75% RH, Starch/Gelling Carrageenan film [1]	Test Result After 24 Hours at 40° C.-75% RH, Gelatin film [2]	pH of the PEG solution [3]
CC(=O)O.N [Ammonium acetate]	Pass	Fail	
O=C(O)CC(O)(CC(=O)O)C(=O)O [Citric acid]	Fail	Fail	
O=C([O-])c1ccccc1C(=O)O.[K+] [Potassium Hydrogen Phthalate]	Pass	Fail	
O=P([O-])([O-])O.[K+].[K+] [Potassium PO4-(dibasic)]	Pass	Fail	
CC(=O)[O-].[K+] [Potassium acetate]	Pass	Fail	
O=C([O-])CC(O)(CC(=O)[O-])C(=O)[O-].[K+].[K+].[K+] [Potassium citrate]	Pass	Fail	
O=P([O-])([O-])[O-].[Na+].[Na+].[Na+] [Sodium PO4-(tribasic)]	Pass	Fail	
O=C(O)C(O)C(O)C(=O)O (centres unmarked) [Tartaric acid]	Fail	Fail	
CC(=O)Nc1ccc(O)cc1 [acetaminophen, N-acetyl-p-aminophenol]			greater than 12
